In PMC7391767, “Molecular mechanisms underlying menthol binding and activation of TRPM8 ion channel” (Nature Communications, 2020):
Values joined by “and” are separate entries in the source; they are usually repeats but may differ in a detail not shown here. Equal entries are not always repeated. “Also recorded” adds a separate entry of the source.

Key:
Assay type in all cases: cell-based
TRPM8 = molecular target: T1, TRPM8 (Mus musculus, UniProt Q8R4D5); experiment: whole-cell patch-clamp recording in response to a voltage ramp; conditions: beyond −200 mV; near saturating menthol (0.5 mM)
T1 construct: expressed in transfected cells; host or cells: HEK293T
Excerpt: Supplementary Figure 8. Deep hyperpolarization antagonized me nthol activation of TRPM8 but not capsaicin activation of TRPV1. ( a) Representative whole-cell patch- clamp recording of menthol activation of TRPM8 in response to a voltage ramp. In the hyperpolarized voltage range, TRPM8 current increased first and then decreased […]
mM menthol. (b) Representative whole- cell patch- clamp recording of capsaicin activation of TRPV1 in response to a voltage ramp. In the hyperpolarized voltage range, TRPV1 current kept increasing linearly with the lowering of membrane potential, which […]
(1 picture or pasted object on this page, not shown here)

ANAP-incorporated TRPM8 [1] = molecular target: T2, ANAP-incorporated TRPM8 (Mus musculus, UniProt Q8R4D5, Q1003X); design: Shifts in ANAP emission, Ave: unit: nm; conditions: ANAP incorporation site Q1003; average shift, menthol activated vs resting state
T2 construct: expressed in transfected cells; host or cells: HEK293 cells, co-transfected with the pANAP vector
Description: (§1) As fluorescence emission peak of ANAP shifts to a longer wavelength in more hydrophilic environment, we measured the shift in ANAP emission peak to report conformational changes. Fluorescence properties of ANAP may also be affected by other factors such as temperature and pH[31], so we performed our ANAP experiments always at room temperature (22 ± 1°C). To control for changes in solution pH, we added 3 mM HEPES in ANAP imaging solution to buffer the pH at 7.2. We genetically integrated ANAP into a specific site on TRPM8 with special tRNA and synthetase encoded by pANAP vector (Fig. 5d).
(§2) L-ANAP methyl ester was purchased from AsisChem. pANAP vector was purchased from Addgene. ANAP was incorporated into TRPM8 by introducing a TAG amber stop codon mutation as previously reported. Briefly, after co-transfection of both TRPM8 and pANAP vectors, ANAP was directly added to the culture medium to the final concentration of 20 µM. After 1–2 days, ANAP-containing culture medium was completely changed. Cells were further cultured in ANAP-free medium overnight before experiments.
(§3) ANAP fluorescence was excited by the Ar laser with a 375/28 excitation filter, a T400lp dichroic mirror, and a 435LP emission filter on an inverted fluorescence microscope (Nikon TE2000-U) using a ×40 oil-immersion objective (NA 1.3). Emission spectrum of ANAP was imaged with an Acton SpectraPro 2150i spectrograph in conjunction with an optiMOS CCD camera (Qimaging, USA). We determined the ANAP emission peak value by fitting the emission spectrum with a skewed Gauss distribution in Igor Pro version 6.1 (WaveMatrix), and then the difference in emission peak values measured in the absence and presence of menthol was reported as the shift of ANAP emission.

ANAP-incorporated TRPM8 [2] = molecular target: T3, ANAP-incorporated TRPM8 (Mus musculus, UniProt Q8R4D5, P958X); design: Shifts in ANAP emission, Ave: unit: nm
T3 construct: expressed in transfected cells; host or cells: HEK293 cells, co-transfected with the pANAP vector
Description: as §1, §2, §3

ANAP-incorporated TRPM8 [3] = molecular target: T4, ANAP-incorporated TRPM8 (Mus musculus, UniProt Q8R4D5, Y924X); design: Shifts in ANAP emission, Ave: unit: nm; conditions: ANAP incorporation site Y924
T4 construct: expressed in transfected cells; host or cells: HEK293 cells, co-transfected with the pANAP vector
Description: as §1, §2, §3

ANAP-incorporated TRPM8 [4] = molecular target: T5, ANAP-incorporated TRPM8 (Mus musculus, UniProt Q8R4D5, Y787X); design: Shifts in ANAP emission, Ave: unit: nm; conditions: ANAP incorporation site Y787, menthol activated vs resting state
T5 construct: expressed in transfected cells; host or cells: HEK293 cells, co-transfected with the pANAP vector
Description: as §1, §2, §3

ANAP-incorporated TRPM8 [5] = molecular target: T6, ANAP-incorporated TRPM8 (Mus musculus, UniProt Q8R4D5, L939X); design: Shifts in ANAP emission, Ave: unit: nm
T6 construct: expressed in transfected cells; host or cells: HEK293 cells, co-transfected with the pANAP vector
Description: as §1, §2, §3

ANAP-incorporated TRPM8 [6] = molecular target: T7, ANAP-incorporated TRPM8 (Mus musculus, UniProt Q8R4D5, S820X); design: Shifts in ANAP emission, Ave: unit: nm; conditions: ANAP incorporation site S820; average shift, menthol activated vs resting state
T7 construct: expressed in transfected cells; host or cells: HEK293 cells, co-transfected with the pANAP vector
Description: as §1, §2, §3

ANAP-incorporated TRPM8 [7] = molecular target: T8, ANAP-incorporated TRPM8 (Mus musculus, UniProt Q8R4D5, T922X); design: Shifts in ANAP emission, Ave: unit: nm
T8 construct: expressed in transfected cells; host or cells: HEK293 cells, co-transfected with the pANAP vector
Description: as §1, §2, §3

ANAP-incorporated TRPM8 [8] = molecular target: T9, ANAP-incorporated TRPM8 (Mus musculus, UniProt Q8R4D5, L774X); design: Shifts in ANAP emission, Ave: unit: nm
T9 construct: expressed in transfected cells; host or cells: HEK293 cells, co-transfected with the pANAP vector
Description: as §1, §2, §3

T1 sequence (Q8R4D5 whole entry): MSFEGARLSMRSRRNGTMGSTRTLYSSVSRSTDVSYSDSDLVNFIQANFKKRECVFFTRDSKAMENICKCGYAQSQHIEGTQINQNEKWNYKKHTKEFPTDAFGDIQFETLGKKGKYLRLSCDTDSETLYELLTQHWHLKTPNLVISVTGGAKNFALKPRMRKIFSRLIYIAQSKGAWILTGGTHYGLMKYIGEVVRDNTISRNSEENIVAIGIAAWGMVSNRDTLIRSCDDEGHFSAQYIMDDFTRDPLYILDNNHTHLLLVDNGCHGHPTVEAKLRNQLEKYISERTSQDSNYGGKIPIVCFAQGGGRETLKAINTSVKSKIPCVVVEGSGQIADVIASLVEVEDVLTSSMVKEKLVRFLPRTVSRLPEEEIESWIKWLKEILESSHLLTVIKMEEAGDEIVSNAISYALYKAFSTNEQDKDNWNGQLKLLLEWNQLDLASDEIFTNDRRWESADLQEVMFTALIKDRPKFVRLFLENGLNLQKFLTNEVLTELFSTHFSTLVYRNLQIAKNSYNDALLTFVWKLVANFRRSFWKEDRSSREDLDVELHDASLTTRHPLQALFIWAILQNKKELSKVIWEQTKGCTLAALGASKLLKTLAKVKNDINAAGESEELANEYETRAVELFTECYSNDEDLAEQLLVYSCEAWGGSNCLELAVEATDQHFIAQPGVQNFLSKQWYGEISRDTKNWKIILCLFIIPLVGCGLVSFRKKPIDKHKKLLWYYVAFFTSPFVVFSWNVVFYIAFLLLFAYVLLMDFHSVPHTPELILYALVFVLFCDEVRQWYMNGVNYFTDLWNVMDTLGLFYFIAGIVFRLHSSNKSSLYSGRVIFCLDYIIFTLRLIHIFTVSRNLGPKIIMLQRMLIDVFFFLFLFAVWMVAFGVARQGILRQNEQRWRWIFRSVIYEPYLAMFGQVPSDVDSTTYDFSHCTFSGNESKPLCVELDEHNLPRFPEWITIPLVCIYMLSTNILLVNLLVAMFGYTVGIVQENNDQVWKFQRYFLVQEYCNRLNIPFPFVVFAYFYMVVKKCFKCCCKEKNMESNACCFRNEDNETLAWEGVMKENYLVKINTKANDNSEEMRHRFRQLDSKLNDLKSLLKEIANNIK

CC(C)[C@@H]1CC[C@@H](C)C[C@H]1O [menthol, (−)-menthol]
effect of deep hyperpolarization on ligand-activated channel (TRPM8): decreased towards zero; also recorded: closed the channel | Shifts_ave (ANAP-incorporated TRPM8 [1]): 1.02 nm | Shifts in ANAP emission, Ave (ANAP-incorporated TRPM8 [2]; ANAP at P958): 2.76 | Shifts_ave (ANAP-incorporated TRPM8 [2]; ANAP incorporation site P958, average shift, menthol activated vs resting state): 2.32 nm | Shifts in emission (ANAP-incorporated TRPM8 [2]; ANAP incorporation site P958, menthol activated vs resting state, single measurement): 2.11 nm and 2.76 nm and 2.75 nm and 1.64 nm | Shifts_ave (ANAP-incorporated TRPM8 [3]; average shift, menthol activated vs resting state): -0.72 nm | Emission Peak at menthol activated state (ANAP-incorporated TRPM8 [3]; single measurement): 483.26 nm and 481.78 nm and 474.51 nm and 486.54 nm | Shifts_ave (ANAP-incorporated TRPM8 [4]; average shift): 1.928 nm | Shifts in emission (ANAP-incorporated TRPM8 [4]; single measurement): 1.56 nm and 1.57 nm and 2.4 nm and 1.35 nm and 2.69 nm and 2 nm | Shifts in ANAP emission, Ave (ANAP-incorporated TRPM8 [5]; ANAP at L939): 2.11 | Shifts_ave (ANAP-incorporated TRPM8 [5]; ANAP incorporation site L939, average shift, menthol activated vs resting state): 2.11 nm | Shifts in emission (ANAP-incorporated TRPM8 [5]; ANAP incorporation site L939, menthol activated vs resting state, single measurement): 2.38 nm and 1.56 nm and 2.39 nm | Emission Peak at menthol activated state (ANAP-incorporated TRPM8 [5]; ANAP incorporation site L939, single measurement): 484.67 nm and 488.02 nm and 485.09 nm | Shifts_ave (ANAP-incorporated TRPM8 [6]): 0.28 nm | Shifts in ANAP emission, Ave (ANAP-incorporated TRPM8 [7]; ANAP at T922): -2.55 | Shifts_ave (ANAP-incorporated TRPM8 [7]; ANAP incorporation site T922, average shift, menthol activated vs resting state): -2.55 nm | Emission Peak at menthol activated state (ANAP-incorporated TRPM8 [7]; ANAP incorporation site T922, single measurement): 473.38 nm and 482.56 nm and 468.55 nm and 478.75 nm and 477.12 nm | Shifts in ANAP emission, Ave (ANAP-incorporated TRPM8 [8]; ANAP at L774): 2.36 | Shifts_ave (ANAP-incorporated TRPM8 [8]; ANAP incorporation site L774, average shift, menthol activated vs resting state): 2.3625 nm | Emission Peak at menthol activated state (ANAP-incorporated TRPM8 [8]; ANAP incorporation site L774, single measurement): 484.17 nm and 483.39 nm and 483.98 nm and 484.46 nm and 486.95 nm and 482.2 nm and 480.79 nm
